In publication PMC3828658 (Organic & biomolecular chemistry, 2013):
“Also recorded” adds a separate entry of the source.

Columns and labels:
HeLa cells [1] = experiment: Intracellular concentration / cellular uptake by LC-MS; assay type: cell-based, human; details: 500 μM, 30 minutes
HeLa cells [2] = experiment: Anticancer potency, 72 hour Sulforhodamine B assay; assay type: cell-based, human; details: for IC50: Homo sapiens, HeLa, 72 h, read-out: Anticancer potency, 72 hour IC50; for cell death: HeLa cells, 100 μM, 72 hours
Stability [3] = assay type: in vitro ADME, human; details: 30 min at 37 °C, 100 μM
Stability [4] = assay type: in vitro ADME; details: RPMI 1640 growth media, 30 min at 37 °C, 100 μM
HeLa cells [5] = experiment: Lactate production inhibition in HeLa cells quantified by GC-MS; assay type: cell-based, human; details: 8 hours; for effect on lactate production: 50-200 μM
LDH-A [6] = molecular target: T1, LDH-A (Homo sapiens, UniProt P00338); experiment: Enzyme inhibition of purified human LDH-A; assay type: biochemical
WT-MEF = experiment: Growth inhibition in non-cancerous immortalized cell line, SRB assay; assay type: cell-based; details: 100 μM, 72 hours, preliminary
LDH-A [7] = molecular target: T1, LDH-A; experiment: Enzyme kinetics, NADH-competition, mixed-model inhibition fit; assay type: biochemical
LDH-A [8] = details: read-out: LDH-A IC50 reported in the literature; cited from earlier work
[9] = cited from earlier work

COC(=O)C(Cc1ccc(CCCC(=O)NCCC(=O)Nc2ccc3nc(C)sc3c2)cc1)C(=O)OC [Compound 4, dimethyl 2-(4-(4-((3-((2-methylbenzo[d]thiazol-6-yl)amino)-3-oxopropyl)amino)-4-oxobutyl)benzyl)malonate, reference compound]
cellular uptake in HeLa cells (HeLa cells [1]; LC-MS): efficient cell uptake | IC50 (HeLa cells [2]): 75.4 µM | cleavage in HeLa cell lysate (Stability [3]): substantially cleaved to compound 5 | monohydrolysis to monoester 5 in HeLa cell lysate (Stability [3]): ~ 50% | stability / cleavage in culture media (Stability [4]): stable; also recorded: not appreciably cleaved | effect on lactate production (HeLa cells [5]): significant reduction | LDH-A (IC50) [NADH] (LDH-A [6]; NADH-competition assay: 1440 μM sodium pyruvate, 40 μM NADH, mean ± SD): lack of inhibitory potency

COC(=O)c1cc2c(C(F)(F)F)cc(-c3ccccc3)cc2n1O [Compound 2, methyl 1-hydroxy-6-phenyl-4-(trifluoromethyl)-1H-indol-2-carboxylate]
concentration in HeLa cell lysate solution relative to free acid 1 (HeLa cells [1]; LC-MS): ~ 4 fold | cleavage of methyl ester following cellular incubation (HeLa cells [1]; HeLa cells): No cleavage | cell death (HeLa cells [2]): 100% | IC50 (HeLa cells [2]): 33.4 µM | cleavage in HeLa cell lysate (Stability [3]): not appreciably cleaved | cell death (WT-MEF): approximately 70% | stability / cleavage in culture media (Stability [4]): not appreciably cleaved | lactate production relative to vehicle (HeLa cells [5]; 200 μM): ~ 20%

COC(=O)C(Cc1ccc(CCCC(=O)NCCC(=O)Nc2ccc3nc(C)sc3c2)cc1)C(=O)O (stereo not drawn) [Compound 5, 3-Methoxy-2-(4-(4-((3-((2-methylbenzo[d]thiazol-6-yl)amino)-3-oxopropyl)amino)-4-oxobutyl)benzyl)-3-oxopropanoic acid]
cellular uptake in HeLa cells (HeLa cells [1]; LC-MS): no direct cell uptake | cell death in HeLa cells (HeLa cells [2]; 72 hour treatment, up to 200 μM): No substantial cell death | effect on lactate production (HeLa cells [5]): failed to result in any substantial reduction

Cc1nc2ccc(NC(=O)CCNC(=O)CCCc3ccc(CC(C(=O)O)C(=O)O)cc3)cc2s1 [Compound 3, 2-(4-(4-((3-((2-methylbenzo[d]thiazol-6-yl)amino)-3-oxopropyl)amino)-4-oxobutyl)benzyl)malonic acid, reference compound]
cellular uptake in HeLa cells (HeLa cells [1]; LC-MS): could not be detected in lysate | IC50 (HeLa cells [2]): > 500 µM | Ki (LDH-A [7]): 0.23 µM | IC50 (LDH-A [8]): 0.5 µM | effect on lactate production (HeLa cells [5]): did not show any effect | activity in cell-based assays (literature) [9]: inactive | IC50 (LDH-A [6]): 1 ± 0.2 µM

O=C(O)c1cc2c(C(F)(F)F)cc(-c3ccccc3)cc2n1O [Compound 1, 1-Hydroxy-6-phenyl-4-(trifluoromethyl)-1H-indol-2-carboxylic acid]
cell death (HeLa cells [2]): 100% | IC50 (HeLa cells [2]): 43.8 µM | Ki (LDH-A [7]): 10.8 µM | cell death (WT-MEF): less than 20% | lactate production relative to vehicle (HeLa cells [5]; 100 μM): 70%
